# According to patent US20060160851A1, “Substituted piperidine carbamates” (Novo Nordisk A/S, priority 2003, published 2006):
# Target: T1, hormone sensitive lipase (Homo sapiens, UniProt Q05469)
# T1 construct: made in house
# T1 sequence (Q05469 1-1076): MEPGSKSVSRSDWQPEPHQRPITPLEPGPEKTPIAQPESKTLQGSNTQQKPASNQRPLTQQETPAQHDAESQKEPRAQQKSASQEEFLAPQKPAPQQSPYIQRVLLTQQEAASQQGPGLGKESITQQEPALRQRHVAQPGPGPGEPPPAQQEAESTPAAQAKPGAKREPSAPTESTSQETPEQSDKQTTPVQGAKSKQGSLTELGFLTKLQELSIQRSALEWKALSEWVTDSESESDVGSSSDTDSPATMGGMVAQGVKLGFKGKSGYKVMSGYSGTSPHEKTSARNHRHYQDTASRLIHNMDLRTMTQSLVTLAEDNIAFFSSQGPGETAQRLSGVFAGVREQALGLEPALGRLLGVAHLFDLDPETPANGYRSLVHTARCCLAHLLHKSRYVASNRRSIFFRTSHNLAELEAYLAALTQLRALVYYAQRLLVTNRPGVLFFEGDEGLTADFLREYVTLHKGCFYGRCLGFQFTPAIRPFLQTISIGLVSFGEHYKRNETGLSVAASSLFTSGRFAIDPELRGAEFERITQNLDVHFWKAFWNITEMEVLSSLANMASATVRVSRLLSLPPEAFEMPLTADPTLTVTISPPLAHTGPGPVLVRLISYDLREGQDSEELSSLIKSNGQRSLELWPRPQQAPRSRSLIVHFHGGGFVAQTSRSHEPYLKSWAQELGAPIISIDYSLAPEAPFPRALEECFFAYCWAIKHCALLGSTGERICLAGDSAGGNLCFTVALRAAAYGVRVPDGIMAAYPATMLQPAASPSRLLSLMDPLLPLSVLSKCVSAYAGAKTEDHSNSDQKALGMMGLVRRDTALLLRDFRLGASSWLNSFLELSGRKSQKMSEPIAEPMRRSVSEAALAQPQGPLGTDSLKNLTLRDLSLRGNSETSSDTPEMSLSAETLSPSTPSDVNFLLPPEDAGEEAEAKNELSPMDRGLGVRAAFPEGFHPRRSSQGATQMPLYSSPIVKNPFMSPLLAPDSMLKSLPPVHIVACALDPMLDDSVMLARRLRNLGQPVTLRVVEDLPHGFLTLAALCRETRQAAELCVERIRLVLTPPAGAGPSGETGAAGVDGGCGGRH
# Test: Assay 3190.1: percent inhibition of hormone sensitive lipase by compound at 10 μM (fluorochrome-labeled triacylglyceride emulsion, HSL_FL)
# Format: biochemical
# Conditions: 10 μM sample concentration; % activity relative to non-inhibited sample (no compound); 30 min preincubation at 25° C., 120 min incubation at 37° C.; read-out: Test 3190.1 HSL_FL % ACTIVITY
# Source text: The Hormone-sensitive lipase was provided by Dr. Cecilia Holm, from Lund University Sweden or produced and purified by Novo Nordisk (NN) using the reagents and protocols used by Dr. Holm. The substrates used are: ^3H-labeled triolein (TO) from Amersham, Buckinghamshire, U.K. cat No. TRA191; 5-20 Ci/mmol dissolved in toluene, triolein (Sigma, Cat. No. T-1740), fluorochrome-labeled triacylglyceride (cis-octadec-9-enoic acid 2-[12-(7-nitrobenzo[1,2,5]oxadiazol-4-ylamino)dodecanoyloxy]-1-cis-octadec-9-enoyloxymethyl-ethyl ester) prepared by Novo Nordisk (NN) by conventional methods, and 1,3-(di[^3H]-stearin), 2-(PEG-Biotin)glycerol prepared in collaboration with Amersham Pharmacia Biotech, UK and described in WO 01/073442. Phosphatidyl choline (PC) and phosphatidyl inositol (PI) are from Sigma (St Luis Mo. cat. Nos. P-3556 and P-5954 respectively). All other reagents are of commercial grade and obtained from various commercial sources.
# 3190.1: Assay for determination of percent inhibition of hormone sensitive lipase by compound at 10 μM sample concentration.
# A lipid emulsion with fluorochrome-labeled triacylglyceride and phospholipid is used as substrate with a standard concentration of highly purified HSL (12 μg/mL initial concentration corresponding to 600 ng/mL final concentration). BSA is added as product acceptor receptor. The transfer of the fluorochrome from the lipid phase to the water (BSA) phase changes the fluorescent properties of the fluorochrome. The changes can be monitored on a fluorimeter with an excitation wavelength of 450 nm and an emission wavelength of 545 nm.
# Compound and HSL (20 μL compound, 10 μL enzyme and 70 μL PED-BSA buffer) is pre-incubated for 30 min at 25° C. before addition of substrate (100 μL). Amount of formed product is measured after 120 min incubation at 37° C.
# Results are given as percent activity relative to a non-inhibited sample (no compound).
row,SMILES,activity at 10 µM [%]
1,"Cc1ccc(Cc2ccc(OC(=O)N3CCC(On4cccn4)CC3)cc2)nc1 [Example 48, 4-(Pyrazol-1-yloxy)-piperidine-1-carboxylic acid 4-(5-methyl-pyridin-2-ylmethyl)-phenyl ester]",1
2,"Cc1ccc(Cc2ccc(OC(=O)N3CCC(Oc4ccccc4)CC3)cc2)cn1 [Example 50, 4-Phenoxy-piperidine-1-carboxylic acid 4-(6-methyl-pyridin-3-ylmethyl)-phenyl ester]",3
3,"C=CCOC(=O)Cc1ccc(OC2CCN(C(=O)Oc3ccc(CCN4C(=O)CC(C)(C)CC4=O)cc3)CC2)cc1 [Example 55, 4-(4-Allyloxycarbonylmethyl-phenoxy)-piperidine-1-carboxylic acid 4-[2-(4,4-dimethyl-2,6-dioxo-piperidin-1-yl)-ethyl]-phenyl ester]",1
4,"CC1(C)CC(=O)N(CCc2ccc(OC(=O)N3CCC(Oc4ccc(C(=O)O)cc4)CC3)cc2)C(=O)C1 [Example 59, 4-(4-Carboxy-phenoxy)-piperidine-1-carboxylic acid 4-[2-(4,4-dimethyl-2,6-dioxo-piperidin-1-yl)-ethyl]-phenyl ester]",31
5,"O=C(Nc1ccc(OC(=O)N2CCC(On3cccn3)CC2)nc1)c1ccccc1 [Example 61, 4-(Pyrazol-1-yloxy)-piperidine-1-carboxylic acid 5-benzoylamino-pyridin-2-yl ester]",15
6,"O=C(Oc1ccc(Cc2ccc(C(F)(F)F)cc2)cc1)N1CCC(Cc2ncccn2)CC1 [Example 67, 4-Pyrimidin-2-ylmethyl-piperidine-1-carboxylic acid 4-(4-trifluoromethyl-benzyl)-phenyl ester]",4
7,"O=C(Oc1ccc(Oc2ccc(C(F)(F)F)cn2)cc1)N1CCC(Cc2ccsc2)CC1 [Example 68, 4-Thiophen-3-ylmethyl-piperidine-1-carboxylic acid 4-(5-trifluoromethyl-pyridin-2-yloxy)-phenyl ester]",3
8,"Cc1ccc(CC2CCN(C(=O)Oc3ccc(Cc4ccc(C(F)(F)F)cc4)cc3)CC2)nc1 [Example 71, 4-(5-Methyl-pyridin-2-ylmethyl)-piperidine-1-carboxylic acid 4-(4-trifluoromethyl-benzyl)-phenyl ester]",9
9,"O=C(O)Cc1ccc(CC2CCN(C(=O)Oc3ccc(Cc4ccc(C(F)(F)F)cc4)cc3)CC2)cc1 [Example 74, 4-(4-Carboxymethyl-benzyl)-piperidine-1-carboxylic acid 4-(4-trifluoromethyl-benzyl)-phenyl ester]",3
10,"O=C(O)Cc1ccc(OC2CCN(C(=O)Oc3ccc(C(=O)NCCc4ccccc4)cc3)CC2)cc1 [Example 85, 4-(4-Carboxymethyl-phenoxy)-piperidine-1-carboxylic acid 4-phenethylcarbamoyl-phenyl ester]",5
11,"O=C(O)Cc1ccc(OC2CCN(C(=O)Oc3ccc(C(=O)NCC4CCCCC4)cc3)CC2)cc1 [Example 88, 4-(4-Carboxymethyl-phenoxy)-piperidine-1-carboxylic acid 4-(cyclohexylmethyl-carbamoyl)-phenyl ester]",3
12,"O=C(O)Cc1ccc(OC2CCN(C(=O)Oc3ccc(C(=O)NCCc4cccs4)cc3)CC2)cc1 [Example 91, 4-(4-Carboxymethyl-phenoxy)-piperidine-1-carboxylic acid 4-(2-thiophen-2-yl-ethylcarbamoyl)-phenyl ester]",10
13,"O=C(O)Cc1ccc(OC2CCN(C(=O)Oc3ccc(CCOc4ccc(-n5cnnc5)cc4)cc3)CC2)cc1 [Example 97, 4-(4-Carboxymethyl-phenoxy)-piperidine-1-carboxylic acid 4-[2-(4-[1,2,4]triazol-4-yl-phenoxy)-ethyl]-phenyl ester]",15
14,"O=C(O)Cc1ccc(OC2CCN(C(=O)Oc3ccc(Cc4ncc(C(F)(F)F)cc4Cl)cc3)CC2)cc1 [Example 102, 4-(4-Carboxymethyl-phenoxy)-piperidine-1-carboxylic acid 4-(3-chloro-5-trifluoromethyl-pyridin-2-ylmethyl)-phenyl ester]",11
15,"O=C(O)Cc1ccc(OC2CCN(C(=O)Oc3ccc(Oc4ccc(C(F)(F)F)cc4)cc3)CC2)cc1 [Example 103, 4-(4-Carboxymethyl-phenoxy)-piperidine-1-carboxylic acid 4-(4-trifluoromethyl-phenoxy)-phenyl ester]",6
16,"CC(C)(C)CCNC(=O)c1ccc(OC(=O)N2CCC(Oc3ccc(C(=O)O)cc3)CC2)cc1 [Example 105, 4-(4-Carboxy-phenoxy)-piperidine-1-carboxylic acid 4-(3,3-dimethyl-butylcarbamoyl)-phenyl ester]",11
17,"O=C(O)Cc1cccc(OC2CCN(C(=O)Oc3ccc(Oc4ccc(C(F)(F)F)cn4)cc3)CC2)c1 [Example 110, 4-(3-Carboxymethyl-phenoxy)-piperidine-1-carboxylic acid 4-(5-trifluoromethyl-pyridin-2-yloxy)-phenyl ester]",20
18,"O=C(O)CCc1cccc(OC2CCN(C(=O)Oc3ccc(Oc4ccc(C(F)(F)F)cn4)cc3)CC2)c1 [Example 112, 4-[3-(2-Carboxy-ethyl)-phenoxy]-piperidine-1-carboxylic acid 4-(5-trifluoromethyl-pyridin-2-yloxy)-phenyl ester]",14
19,"O=C(O)Cc1ccc(OC2CCN(C(=O)Oc3ccc(Oc4ccc(Cl)cn4)cc3)CC2)cc1 [Example 117, 4-(4-Carboxymethyl-phenoxy)-piperidine-1-carboxylic acid 4-(5-chloro-pyridin-2-yloxy)-phenyl ester]",8
